This is an account of results in patent US20130078185A1, “NITROIMIDAZOLE DERIVATIVES” (GE HEALTHCARE LIMITED, priority 2010, published 2013).

Values after ≈ are worked out from the molar mass of the structure shown. Where two headings read alike, the source gives them in different places. Some results are limits rather than exact numbers.

For assay [1], the system named is VERO cells. The experiment in a line: cells. It is filed as cell-based, African green monkey (Cercopithecus aethiops). Conditions: Chlorocebus sabaeus.
The subject of assay [2] is Mycobacterium tuberculosis strain H37Rv. The experiment in a line: microplate alamar blue assay (MABA) MIC. It is filed as cell-based. Conditions: M. tuberculosis H37Rv, BACTEC 12B medium, MIC90 = 90% reduction in fluorescence relative to controls. The method, then: Screening was done to get MIC for M. tuberculosis using both the microplate alamar blue assay (MABA) and low-oxygen recovery assay (LORA).
The initial screen was conducted against Mycobacterium tuberculosis strain H37Rv (American Type Culture Collection number 27294) in BACTEC 12B medium (Becton-Dickinson) using the MABA. Compounds were tested in ten 2-fold dilutions, typically from 100 μg/mL to 0.19 μg/mL. The MIC90 is defined as the concentration effecting a reduction in fluorescence of 90% relative to controls. This value is determined from the dose-response curve using a curve-fitting program. Any MIC90 value of ≦10 μg/mL was considered “active” for antitubercular activity. 3(h) Method for Determining IC50
(In general: Alamar Blue is a resazurin reagent that responds to reducing activity.)

In turn, `C[C@]1(COc2ccccc2)Cn2cc([N+](=O)[O-])nc2O1` [Example 1, (R)-2-Methyl-6-nitro-2-(phenoxymethyl)-2,3-dihydroimidazo[2,1-b]oxazole] returned a concentration for half-maximal inhibition (IC50) in assay [1] (Vero, 72 h) above 50 µg/mL. The MIC in assay [2] was found to be 1.33 µg/mL (≈ 4.83 µM).
For the compound `C[C@]1(COc2ccc(I)cc2)Cn2cc([N+](=O)[O-])nc2O1` [Example 2, (R)-2-((4-Iodophenoxy)methyl)-2-methyl-6-nitro-2,3-dihydroimidazo[2,1-b]oxazole], in assay [1] (VERO cell cytotoxicity, 72 hours exposure, ATP viability readout, read-out: IC50), the 50% inhibitory concentration (IC50) was above 50 µg/mL. This compound returned an MIC in assay [2] below 0.195 µg/mL.

One may read the IC50 as the concentration at which inhibition is half-maximal. One may read the MIC as the least concentration at which growth counts as inhibited. Read a low MIC as greater potency.
